Test results reported in patent publication US20230346924A1, “MRNA VACCINE COMPRISING ADJUVANT CAPABLE OF KINETIC CONTROL” (PROGENEER INC., priority 2020, published 2023).
Entries after “also recorded” stand apart in the source; their conditions may differ.

Key:
[1] = test system: bone marrow-derived dendritic cells (BMDCs); test: Degree of antigen presentation in BMDCs treated with mRNA and toll-like receptor agonist (anti-OVA SIINFEKL antibodies); assay type: cell-based, mouse; conditions: compared to mRNA only
Protocol: To confirm the efficacy of the composition for an mRNA vaccine of the present invention, an experiment was performed using OVA mRNA which is widely used as an mRNA vaccine. In further detail, first, CleanCap® OVA mRNA (5 moU, L-7210, TriLink Biotechnologies) and Opti-MEM™ (Reduced Serum Medium, ThermoFisher Scientific) were mixed at a volume ratio of 1:49, and Lipofectamine (Lipofectamine™ 2000 Transfection Reagent, ThermoFisher Scientific) and Opti-MEM® were mixed at a volume ratio of 2:23 as a delivery system, and then the above mixtures were mixed again in a volume ratio of 1:1 and reacted for 5 minutes, thereby preparing an mRNA composition. As toll-like receptor agonists, a toll-like receptor 3 agonist, which is polyinosinic-polycytidylic acid (poly I:C, Sigma-Aldrich), a toll-like receptor 4 agonist, which is Lipopolysaccharide (LPS, Sigma-Aldrich), and a toll-like receptor 7 or 8 agonist which is resiquimod (Biorbyt), were used. Poly I:C was used after being dispersed in phosphate buffered saline (PBS) at a concentration of 0.8 mg/mL, LPS was used after being dispersed in PBS at a concentration of 0.3 μg/mL, R848 was first dissolved in dimethyl sulfoxide (DMSO) at a concentration of 20 mg/mL, and then the dissolved solution was dispersed in PBS to a concentration of 20 μg/mL and used. In the case of treatment with a single toll-like receptor agonist, poly I:C was treated at 40 μg/mL. LPS was treated at 30 ng/mL, or R848 was treated at […], and in the case of treatment with a combination of agonists, 2 μg/mL of poly I:C and 1 μg/mL of R848 were treated, or 2 ng/mL of LPS and 1 μg/mL of R848 were treated, and in both cases, mRNA was treated at 1 μg/mL.
To identify the efficacy of the composition for an mRNA vaccine of the present invention, as cells for experiments, bone marrow-derived dendritic cells (BMDCs), plasmacytoid dendritic cells (pDCs), and T cells isolated from the spleen of an ovalbumin-specific TCR-bearing mouse (OT-1 transgenic mouse: OT-1 mouse) were used. BMDCs and pDCs were obtained from the bone marrow of a laboratory mouse, C57BL/6 (female, Orient Bio). In further detail, a 6-weeks-old mouse was euthanized, the femur and tibia were cut, and then a medium was flushed to extract internal materials. In addition, the extracted materials were treated with a red blood cell lysis buffer (BioLegend) to remove red blood cells, and used. For pDCs, 6-weeks-old C57BL/6 was euthanized, the femur and tibia were cut, and then a medium was flushed to extract internal materials. The extracted materials were then treated with a red blood cell lysis buffer (BioLegend) to remove red blood cells, and only pDCs were isolated using a pDC isolation kit (Plasmacytoid Dendritic Cell Isolation Kit, mouse, MACS Miltenyi Biotec) to be used in the experiments. Spleen cells were used by extracting the spleen from an OT-1 laboratory mouse, physically grinding the spleen to prepare single cells, washing the cells with PBS, and removing red blood cells with a red blood cell lysis buffer. The obtained cells were then seeded in a culture plate (Corning petri dish) with a size of 100 mm×25 mm to 2×10^6 cells, and cultured under conditions of 5% CO2 and 37° C. As a culture medium, a complete RPMI 1640 medium(Gibco) to which 20 ng/mL of a granulocyte-macrophage colony-stimulating factor (GM-CSF, Recombinant Mouse GM-CSF Protein, R&D Systems) was added, was used. […]

[2] = test system: bone marrow-derived dendritic cells (BMDCs); test: Cytokine secretion by BMDCs (ELISA: IL-12p70, IL-10, type 1 IFN); assay type: cell-based, mouse
Protocol: To confirm the efficacy of the composition for an mRNA vaccine of the present invention, an experiment was performed using OVA mRNA which is widely used as an mRNA vaccine. In further detail, first, CleanCap® OVA mRNA (5 moU, L-7210, TriLink Biotechnologies) and Opti-MEM™ (Reduced Serum Medium, ThermoFisher Scientific) were mixed at a volume ratio of 1:49, and Lipofectamine (Lipofectamine™ 2000 Transfection Reagent, ThermoFisher Scientific) and Opti-MEM® were mixed at a volume ratio of 2:23 as a delivery system, and then the above mixtures were mixed again in a volume ratio of 1:1 and reacted for 5 minutes, thereby preparing an mRNA composition. As toll-like receptor agonists, a toll-like receptor 3 agonist, which is polyinosinic-polycytidylic acid (poly I:C, Sigma-Aldrich), a toll-like receptor 4 agonist, which is Lipopolysaccharide (LPS, Sigma-Aldrich), and a toll-like receptor 7 or 8 agonist which is resiquimod (Biorbyt), were used. […]
To confirm the effect of a composition for an mRNA vaccine including a single toll-like receptor in BMDCs, first, BMDCs were treated with a toll-like receptor agonist and modified-mRNA (5-methoxyuridine modified OVA mRNA, TriLink) in the same manner as in Example 12.1, and an antigen presentation degree, amounts of cell surface molecules and levels of cytokines such as interleukin-12p70 (IL-12p70) and interferon were measured. […]

[3] = test system: T cells isolated from the spleen of an OT-1 mouse; test: OT-1 T cell activation in co-culture of treated BMDCs and T cells; assay type: cell-based; conditions: BMDC/T cell co-culture
[4] = agonist and mRNA at the same time (0h)
[5] = agonist four hours after mRNA (4h)
[6] = agonist and mRNA at the same time (0h), compared to mRNA alone

Lipopolysaccharide [LPS]
degree of antigen presentation [1, 4]: reduced | degree of antigen presentation ([1]; agonist eight hours after mRNA (8h)): increased | degree of antigen presentation [1, 5]: increased

polyinosinic-polycytidylic acid [poly I:C]
degree of antigen presentation [1, 4]: remarkably reduced | degree of antigen presentation [1, 5]: significantly increased | secretion of type 1 IFN [2, 4]: markedly increased | secretion of type 1 IFN [2, 5]: reduced | amount of IFN-γ+ T cells ([3]; agonist 4h after mRNA): markedly increased | level of IL-2 ([3]; agonist 4h after mRNA): highest; also recorded: markedly increased | level of secreted IFN-γ ([3]; agonist 4h after mRNA): markedly increased | amount of IFN-γ+ T cells ([3]; agonist 8h after mRNA): markedly increased | level of IL-2 ([3]; agonist 8h after mRNA): markedly increased | level of secreted IFN-γ ([3]; agonist 8h after mRNA): markedly increased | amount of IFN-γ+ T cells [3, 6]: remarkably reduced | level of IL-2 [3, 6]: remarkably reduced | level of secreted IFN-γ [3, 6]: remarkably reduced
